# Earlier results, collected in paper PMC3466449 (Scientific Reports, 2012).
# Non-standard residues stand in square brackets, D forms with d. No end group written: not given here. pGlu = O=C1CC[C@@H](C(=O)O)N1
# Tested on: C-domain of sACE
# Conditions: C-domain over N-domain of sACE
row,Compound,C-domain selectivity
1,O=C(N[C@@H](Cc1ccccc1)P(=O)(O)C1CCCC1C(=O)N[C@@H](Cc1c[nH]c2ccccc12)C(=O)O)OCc1ccccc1 (some centres unmarked) [RXPA380],approximately 3000 fold
2,"[pGlu]GLPPRPKIPP [BPPb, bradykinin potentiating peptide b]",about 260 fold
